Test results taken from patent publication US20120264755A1, “PYRIDINYL DERIVATIVES AS INHIBITORS OF ENZYME NICOTINAMIDE PHOSPHORIBOSYLTRANSFERASE” (TopoTarget, priority 2009, published 2012).
Structures can show the parent of a compound that is named as a salt.

system: A2780 cells; assay: In vitro cell proliferation assay (WST-1 assay); type: cell-based; details: Homo sapiens, total incubation time 72 h, WST-1 readout
Experimental: A2780 cells were seeded in 96-well plates at 3×10^3 cells/well in 100 μL of culture medium, 8 wells were left empty for media only controls.
After 24 h the compound titrations were performed, in a separate dilution plate, by serially diluting the compounds of general formula (I) in culture medium. A 100 μL of each dilution was added to the plated cells, this was done in triplicate, and controls (e.g. DMSO and blanks) were included. The plates were incubated for 24 h at 37° C. in a CO2 incubator. The compound titrations were repeated in a separate dilution plate after 24 h. The media plus compound from the assay plates were then aspirated. A 100 μL of media was then added to all wells, followed by 100 μL of each compound dilution. The plates were incubated for a further 48 h at 37° C. in a CO2 incubator (total incubation time 72 h). The number of viable cells was then assessed using Cell Proliferation Reagent WST-1. 10 μL of WST-1 reagent added to each well and incubated for one to four hours at 37° C. in CO2 incubator. The absorbance was measured (450 nm/690 nm).
The activity of compounds of general formula (I) in reducing the number of viable cells was calculated as:
% activity=[(S^c−B)/(S^o−B)]×100
S^c denotes signal measured in the presence of test compound, S^o denotes signal detected in the absence of compound, and B denotes background signal, measured in blank wells containing medium only. Analyse data using GraphPad Prism.

Compound | IC50 [nM]
CS(=O)(=O)N(CCCCCCCN/C(=N\C#N)Nc1ccncc1)OCC1CCCCC1 [Compound 1118, N-(7-(2-cyano-3-(pyridin-4-yl)guanidino)heptyl)-N-(cyclohexylmethoxy)methanesulfonamide] | 0.046
N#C/N=C(\NCCCCCCCCN(CCCN1CCOCC1)C(=O)c1ccccc1)Nc1ccncc1 [Compound 1071, N-(8-(2-cyano-3-(pyridin-4-yl)guanidino)octyl)-N-(3-morpholinopropyl)benzamide] | 0.049
O=C(NCCCCCCN(CCCN1CCOCC1)S(=O)(=O)C1CCCC1)NCc1cccnc1 [Compound 1046] | 0.38
CC(C)S(=O)(=O)N(CCCCCCCCNC(=O)Nc1ccncc1)OCc1ccccc1 [Compound 1028, N-(Benzyloxy)-N-(8-(3-pyridin-4-ylureido)octyl)propane-2-sulfonamide] | 0.37
N#C/N=C(\NCCCCCCCCN(CCCN1CCOCC1)C(=S)Nc1ccccc1)Nc1ccncc1 [Compound 1094, 1-(8-(2-cyano-3-(pyridin-4-yl)guanidino)octyl)-1-(3-morpholinopropyl)-3-Phenylthiourea] | 0.036
CCON(CCCCCCCCN/C(=N\C#N)Nc1ccncc1)Cc1ccccc1 [Compound 1085, 1-(8-(benzyl(ethoxy)amino)octyl)-2-cyano-3-(pyridin-4-yl)guanidine] | 0.062
CCN(CCCCCCCCN/C(=N\C#N)Nc1ccncc1)OCCN1CCOCC1 [Compound 1086, 2-Cyano-1-(8-(ethyl(2-morpholinoethoxy)amino)octyl)-3-(pyridin-4-yl)guanidine oxalate] | 0.024
CCS(=O)(=O)N(CCCCCCN/C(=N\C#N)Nc1ccncc1)OCC1CCCCC1 [Compound 1138, N-(6-(2-cyano-3-(pyridin-4-yl)guanidino)hexyl)-N-(cyclohexylmethoxy)ethane-2-sulfonamide] | 0.059
CS(=O)(=O)N(CCCCCCCCN/C(=N\C#N)Nc1ccncc1)OCC1CCCCC1 [Compound 1124, N-(8-(2-cyano-3-(pyridin-4-yl)guanidino)octyl)-N-(cyclohexylmethoxy)methanesulfonamide] | 0.15
N#C/N=C(\NCCCCCCCN(CCCN1CCOCC1)S(=O)(=O)C1CCCCC1)Nc1ccncc1 [Compound 1010, N-(7-(2-cyano-3-(pyridin-4-yl)guanidino)heptyl)-N-(3-morpholinopropyl)cyclohexanesulfonamide] | 0.002
N#C/N=C(\NCCCCCCCN(CCF)S(=O)(=O)C1CCCCC1)Nc1ccncc1 [Compound 1098, N-(7-(2-cyano-3-(pyridin-4-yl)guanidino)heptyl)-N-(2-fluoroethyl)cyclohexansylfonamide] | 0.07
CCS(=O)(=O)N(CCCCCCCN/C(=N\C#N)Nc1ccncc1)OCC1CCCCC1 [Compound 1060, N-(7-(2-cyano-3-(pyridin-4-yl)guanidino)heptyl)-N-(cyclohexylmethoxy)ethanesulfonamide] | 0.049
N#CN=C(NCCCCCCOc1ccc(Cl)cc1)Nc1ccncc1 [CHS828, 1-(6-(4-chlorophenoxy)hexyl)-2-cyano-3-(pyridine-4-yl)guanidine, reference compound] | 0.52
N#C/N=C(\NCCCCCCN(CCCN1CCOCC1)C1CCCCC1)Nc1ccncc1 [Compound 1003, 2-cyano-1-(6-(cyclohexyl(3-morpholinopropyl)amino)hexyl)-3-(pyridin-4-yl)guanidine] | 11.2
N#C/N=C(\NCCCCCCCCNOCC1CCCCC1)Nc1ccncc1 [Compound 1107, 2-cyano-1-(8-(cyclohexylmethoxyamino)octyl)-3-(pyridin-4-yl)guanidine] | 0.57
CCNC(=O)N(CCCCCCCCN/C(=N\C#N)Nc1ccncc1)OCC1CCCCC1 [Compound 1125, 1-(8-(2-cyano-3-(pyridin-4-yl)guanidino)octyl)-N-(cyclohexylmethoxy)-3-ethylurea] | 0.057
CS(=O)(=O)N(CCCCCCCCN/C(=N\C#N)Nc1ccncc1)OCc1ccccc1 [Compound 1020] | 0.018
